Legend:
DENV2 NGC = test: Primary screening: compounds added to DENV2 infected LLC/MK2 cells, plaque titration of culture supernatants; type: cell-based, Dengue virus
Description: In this study, we selected 8 flavonoid derivatives (Fig. 1) and tested their effect on DENV2 NGC in a LLC/MK2 cell-based system. Briefly, the compounds at final concentrations of 10 μM and 25 μM in DMSO were added to DENV2 infected LLC/MK2 cells and the effect on viral particle production was measured by plaque titration of the culture supernatants. […] We also tested cytotoxicity of FV13, FV14, and CH1 to verify the viral inhibition in LLC/MK2 cells (Table 2). The viabilities of FV13 treated cells were 81.00 ± 2.69% and 59.40 ± 2.42%, at 10, and 25 µM respectively, whereas the values for FV14 treated cells were 60.24 ± 3.31% and 60.86 ± 3.57%. We also examined Vero, THP-1, HepG2, and HEK-293 cell viabilities in the presence of selected compounds (Table 2).
LLC/MK2 cells were seeded at 5 × 10^4 cells into each well of 24-well plate and incubated overnight at 37 °C under 5% CO2. Cells were infected with DENV2 at the multiplicity of infection (M.O.I.) of 0.1, unless indicated otherwise, for 1 h with gentle rocking every 15 min. Cells were washed with phosphate buffer saline (PBS) and incubated with 1 ml of MEM medium supplemented with 1% FBS as previously described. The compounds were prepared in dimethylsulfoxide (DMSO) at the indicated concentrations before addition to viral infected cells. Supernatants were collected after 5 day incubation and analyzed by plaque titration. In primary screening, DMSO-treated cells served as the untreated control. Compounds that inhibited virus production by ≥90% were selected for further characterization.

DENV2 (NGC) = test: Antiviral efficacy (EC50) in virus infected LLC/MK2 cells, plaque assay; type: cell-based, Dengue virus
Description: (§2) Compound at various concentrations were added to virus infected LLC/MK2 cells and viral titers were accessed by plaque titration of supernatants as previously described.
(§3) LLC/MK2 cells were seeded at 5 × 10^4 cells into each well of 24-well plate and incubated overnight at 37 °C under 5% CO2. Cells were infected with DENV2 at the multiplicity of infection (M.O.I.) of 0.1, unless indicated otherwise, for 1 h with gentle rocking every 15 min. Cells were washed with phosphate buffer saline (PBS) and incubated with 1 ml of MEM medium supplemented with 1% FBS as previously described. The compounds were prepared in dimethylsulfoxide (DMSO) at the indicated concentrations before addition to viral infected cells. Supernatants were collected after 5 day incubation and analyzed by plaque titration[9].
(§4) Compounds were prepared in DMSO at 8–12 different concentrations and added to virus infected cells as previously described. Supernatants were collected and the EC50 values were calculated from nonlinear regression analysis.

DENV2 NS2B/3 protease = target: T1, DENV2 NS2B/3 protease (Dengue virus type 2, UniProt P14340); test: In vitro protease assay; type: biochemical; conditions: in words
T1 construct: DENV2 NS2BH-(QR)-NS3pro enzyme3
Description: Assays were performed in triplicate in a 96-well half area black plate
(Greiner Bio-One, Monroe, NC, USA). The reaction mixture (100 μl) contained
200 mM Tris-HCl, pH 9.5, 30% glycerol, 0.1% CHAPS, 1% DMSO, 50 nM
DENV2 NS2BH-(QR)-NS3pro enzyme3, 10 µM fluorogenic tetrapeptide
substrate, Bz-Nle-Lys-Arg-Arg-AMC, and designated concentrations of
compounds in DMSO (concentration of 1%). The compound-enzyme mixture
was pre-incubated for 15 min at room temperature before addition of the
substrate. The reaction was continued at 37 οC for 30 min. The release of AMC
from the substrate was recorded every 1.5 min at 380 nm excitation and 460 nm
emission in a SpectraMax Gemini EM spectrofluorometer (Molecular Devices,
Sunnyvale, CA). DMSO alone (concentration of 1%) was used as the no-inhibitor
control (100% protease activity) and the bovine pancreatic trypsin inhibitor
protease, was used at 5 µM in DMSO concentration of 1% as a positive control
(0% protease activity). Data were plotted and reported as percent inhibition of
each compound to protease activity.
The in vitro enzymatic protease assay. Compounds were prepared three
concentrations and mixed with protein, added substrate (Bz)-Nle-Arg-arg-AMC
and measured at 460 nm with an excitation at 380 nm.

[1] = Cytotoxicity study (CellTiter 96 AQueous One) in HEK-293 cells; type: cell-based; conditions: human, HEK-293 cells, read-out: Cells viability (%, means ± SEM) HEK-293
Description: (§1) The cytotoxicity of active compounds was tested on LLC-MK2, Vero, THP-1, HEK-293, HepG2 and C6/36 cell lines. Each cell line was seeded at 1 × 10^4 cells per well in 96-well plates and incubated overnight. The compounds were added at the indicated concentrations and the cells were incubated for 48 h, unless indicated otherwise. Cell viability was analyzed using CellTiter 96® AQueous One Solution Cell Proliferation Assay kit (Promega, Wisconsin-Madison, USA) according to manufacturer’s protocol. The plate was read at the A 450 in a VICTORTM × 3 microplate reader (PerkinElmer, Massachusetts, USA). Percent cell viability in compound-treated wells was calculated using reference DMSO-treated cells as a 100% cell viability control. The CC50 values of LLC/MK2 cells were calculated using nonlinear regression analysis. Results were reported as means and standard error of the means (SEM) of CC50 values of three independent experiments in which each drug concentration was tested in triplicate.

ZIKV (SV0010/15) = test: Antiviral efficacy (EC50) in virus infected LLC/MK2 cells, plaque assay; type: cell-based, Zika virus
Description: as §2, §3, §4

[2] = Cytotoxicity study (CellTiter 96 AQueous One) in Vero cells; type: cell-based; conditions: African green monkey, Vero cells, 48 h, read-out: Cells viability (%, means ± SEM) Vero
Description: as §1

Vero cells = test: as above; type: cell-based; conditions: 10 and 25 µM; in words
Description: as §1

[3] = Dengue virus, DENV2, LLC-MK2, read-out: DENV2 inhibition (%, means ± SEM)

T1 sequence (P14340 1398-1437): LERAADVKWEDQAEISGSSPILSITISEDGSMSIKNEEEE
T1 sequence (P14340 1476-1653): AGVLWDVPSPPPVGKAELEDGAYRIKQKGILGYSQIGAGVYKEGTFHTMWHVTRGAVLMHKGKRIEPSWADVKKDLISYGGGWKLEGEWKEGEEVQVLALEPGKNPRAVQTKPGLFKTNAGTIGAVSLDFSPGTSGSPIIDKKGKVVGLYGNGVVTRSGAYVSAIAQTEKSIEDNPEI

For `O=c1cc(-c2ccccc2)oc2c(Br)c(O)c(Br)c(O)c12` [FV13, 6,8-dibromo-5,7-dihydroxyflavone], the “inhibition of virus production” value (DENV2 NGC; 10 μM and 25 μM, summary of Table 1) was > 99%, the inhibition at 10 µM (DENV2 NGC; [3]) was 99.45 ± 0.48% and the inhibition at 25 µM (DENV2 NGC; [3]) was 99.65 ± 0.41%. The “S.I. Selectivity index (CC50/EC50)” value (DENV2 (NGC); DENV2 (NGC), CC50 in LLC/MK2) was 30.43, the EC50 (DENV2 (NGC); Dengue virus, DENV2, LLC-MK2) was 1470 ± 860 nM and the “targeting of DENV2 protease in the in vitro protease assay” value (DENV2 NS2B/3 protease) was “did not target DENV2 protease”. For the same molecule, the viability at 48 h, 10 µM ([1]; 10 μM) was 98.1 ± 0.72%, the viability at 48 h, 25 µM ([1]; 25 μM) was 89.4 ± 5.6% and the “S.I. Selectivity index (CC50/EC50)” value (ZIKV (SV0010/15); CC50 in LLC/MK2) was 27.02. For the same molecule, the EC50 (ZIKV (SV0010/15); Zika virus, LLC/MK2, plaque assay in 24-well plates) was 1650 ± 860 nM, the viability at 48 h, 10 µM ([2]; 10 μM) was 53.1 ± 4.9% and the viability at 48 h, 25 µM ([2]; 25 μM) was 42.6 ± 0.65%. The “sensitivity of Vero cells to the compound” value (Vero cells) was “very sensitive”.
